Test results from PubChem BioAssay AID2060619 (Molecular Pharmacology Branch, DTP, NCI, 2025).

System: 323965-272-R-J2-PDC complex spheroid viability
Assay: Anticancer human tumor 323965-272-R-J2-PDC patient-derived pancreatic carcinoma cell line growth inhibition [CLK]
Details: for IC50: curve of first compound; for viability, T/C: stronger effect = lower value
From the text: A high-throughput screen of multi-cell type tumor spheroids was designed to identify active combinations of […] and targeted small molecules. Complex spheroids include a stromal component modeled by human endothelial cells (HUVEC) and fibroblasts modeled by human mesenchymal stem cells (MSCs). The concentration ranges selected for each drug and investigational agent were based upon clinically achievable concentrations if the clinical Cmax of the agent was known.
Compounds. The drugs and investigational agents: cirtuvivint (SM08502; NSC835563), CC-671 (NSC850746), vemurafenib (NSC761431), tapotoclax (NSC804041), sotorasib (NSC818433), adagrasib (NSC831453), MRTX-1133 (NSC836407), BAY2416964 (NSC825713), copanlisib (NSC816437), inavolisib (NSC800729), abemaciclib (NSC768073), osimertinib (NSC779217), entinostat (NSC756642), eltanexor (KPT-8602, NSC794443), venetoclax (NSC766270), ceralasertib (NSC777638), bortezomib (NSC756655), olaparib (NSC753686), talazoparib (NSC767125), alisertib (NSC759677), peposertib (NSC802822), gemcitabine (NSC613327), 5-fluorouracil (NSC19893), SN-38 (NSC673596), oxaliplatin (NSC266046), paclitaxel (NSC125973), and doxorubicin (NSC123127), were obtained from the National Cancer Institute (NCI) Developmental Therapeutics Program Chemical Repository. The FDA-approved anticancer drug set is available from the Developmental Therapeutics Program at https://dtp.cancer.gov/organization/dscb/obtaining/available plates.htm. […] The stock solutions were prepared in dimethyl sulfoxide (DMSO, Sigma-Aldrich, St. Louis, MO, cat. D2650), except for the platinum complexes which were prepared in saline (Quality Biological, Gaithersburg, MD, cat. 114-055-101), at 800-fold the tested concentration and stored at -70 degrees C prior to their use. All drugs and investigational agents were tested over a range starting from a high concentration at or near the clinical Cmax and decreasing in half-log increments. If the clinical Cmax for an agent had not been determined, the highest concentration tested was 10 microM.
Cell Culture. All cells were maintained in an incubator at 37 degrees C and 5% CO2 with 95% humidity. The PDC lines were cultured according to standard operating procedures established by the NCI PDMR. Briefly, all PDCs were thawed and cultured in Matrigel-coated flasks prepared with a working solution of 1X Ham's F-12 nutrient mix, without supplementation (Invitrogen, Waltham, MA, cat. 11765054), 100 U/mL penicillin-streptomycin (Invitrogen, cat. 15140122), and 2.5% Matrigel (Corning Inc., Corning, NY, cat. 354248) for the first three passages. The 947758-054-R-J2-PDC line was cultured in 6B/Colon 1A media, which includes advanced DMEM/F-12 (Thermo Fisher Scientific, cat. 12634028), 10 mM HEPES (Thermo Fisher Scientific, cat. 15630080), 1X GlutaMAX supplement (Thermo Fisher Scientific, cat. 35050061), 0.1 mg/mL primocin (InvivoGen, cat. ant-pm-2), 10% defined fetal bovine serum, heat inactivated (HyClone Laboratories Inc., cat. SH30070.03HI), 1.25 mM N-Acetyl-L-cysteine (Sigma-Aldrich, cat. A9165), 10 mM nicotinamide (Sigma-Aldrich, cat. N0636), 1X B-27 supplement (Thermo Fisher Scientific, cat. 17504044), 1X N-2 supplement (Thermo Fisher Scientific, cat. 17502048), and 10 microM Y-27632 dihydrochloride (Tocris Bioscience, cat. 1254). The 876862-298-R-J1-PDC was cultured in 6E media, which includes all 6B/Colon 1A media components plus 50% L-WRN conditioned media (ATCC, cat. CRL-3276), 50 ng/mL recombinant human EGF recombinant protein (hEGF; Thermo Fisher Scientific, cat. PHG0311), 10 ng/mL recombinant human fibroblast growth factor 10 (hGFG-10; PeproTech, cat. 100-26), 1 ng/mL recombinant human fibroblast growth factor 2 (hFGF-2; PeproTech, cat. 100-18B), and 1 µM prostaglandin E2 (PGE2; Tocris, cat. 2296). The 227483-062-R1-J1-PDC line was cultured in Panc media, containing all 6E components except hFGF-2, with the addition of 500 nM SB-431542 (Selleckchem, cat. S1067) and 10 nM gastrin (Tocris, cat. 3006). […]

[1] = second compound 0.0316 µM, first compound 0.0316 µM
[2] = second compound 0.0316 µM, first compound 0.1 µM
[3] = second compound 0.0316 µM, first compound 0.316 µM
[4] = second compound 0.0316 µM, first compound 1 µM
[5] = second compound 0.1 µM, first compound 0.0316 µM
[6] = second compound 0.1 µM, first compound 0.1 µM
[7] = second compound 0.1 µM, first compound 0.316 µM
[8] = second compound 0.1 µM, first compound 1 µM
[9] = second compound 0.316 µM, first compound 0.0316 µM
[10] = second compound 0.316 µM, first compound 0.1 µM
[11] = second compound 0.316 µM, first compound 0.316 µM
[12] = second compound 0.316 µM, first compound 1 µM
[13] = second compound 1 µM, first compound 0.0316 µM
[14] = second compound 1 µM, first compound 0.1 µM
[15] = second compound 1 µM, first compound 0.316 µM
[16] = second compound 1 µM, first compound 1 µM
[17] = second compound 3.16 µM, first compound 0.0316 µM
[18] = second compound 3.16 µM, first compound 0.1 µM
[19] = second compound 3.16 µM, first compound 0.316 µM
[20] = second compound 3.16 µM, first compound 1 µM
[21] = second compound 10 µM, first compound 0.0316 µM
[22] = second compound 10 µM, first compound 0.1 µM
[23] = second compound 10 µM, first compound 0.316 µM
[24] = second compound 10 µM, first compound 1 µM
[25] = second compound 0.0316 µM, first compound 0.00316 µM
[26] = second compound 0.0316 µM, first compound 0.01 µM
[27] = second compound 0.1 µM, first compound 0.00316 µM
[28] = second compound 0.1 µM, first compound 0.01 µM
[29] = second compound 0.316 µM, first compound 0.00316 µM
[30] = second compound 0.316 µM, first compound 0.01 µM
[31] = second compound 1 µM, first compound 0.00316 µM
[32] = second compound 1 µM, first compound 0.01 µM
[33] = second compound 3.16 µM, first compound 0.00316 µM
[34] = second compound 3.16 µM, first compound 0.01 µM
[35] = second compound 10 µM, first compound 0.00316 µM
[36] = second compound 10 µM, first compound 0.01 µM
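Further: spheroids exposed to agents for seven days before readout.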
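Wherever viability, T/C is given: percent of DMSO vehicle control wells so 100% = untreated growth.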

CC(Nc1ccc2c(c1)OCCn1cc(N3C(=O)OCC3C(F)F)nc1-2)C(N)=O (stereo unspecified) + CN1CCN(c2cc(C(=O)Nc3cc4cc(-c5cnn(C)c5)ccc4cn3)ccn2)CC1
IC50 (second compound 0.0316 µM): 7280 nM
IC50 (second compound 0.1 µM): 327 nM
IC50 (second compound 0.316 µM): < 31.6 nM
IC50 (second compound 1 µM): < 31.6 nM
IC50 (second compound 3.16 µM): < 31.6 nM
IC50 (second compound 10 µM): < 31.6 nM
viability, T/C [1]: 91.5%
viability, T/C [2]: 78.7%
viability, T/C [3]: 79%
viability, T/C [4]: 65.6%
viability, T/C (second compound 0.0316 µM, first compound 3.16 µM): 55.3%
viability, T/C (second compound 0.0316 µM, first compound 10 µM): 48%
viability, T/C [5]: 67.6%
viability, T/C [6]: 58.3%
viability, T/C [7]: 50%
viability, T/C [8]: 45.1%
viability, T/C (second compound 0.1 µM, first compound 3.16 µM): 37.5%
viability, T/C (second compound 0.1 µM, first compound 10 µM): 36.7%
viability, T/C [9]: 27.5%
viability, T/C [10]: 23.4%
viability, T/C [11]: 18%
viability, T/C [12]: 19.1%
viability, T/C (second compound 0.316 µM, first compound 3.16 µM): 19.2%
viability, T/C (second compound 0.316 µM, first compound 10 µM): 14.3%
viability, T/C [13]: 3.27%
viability, T/C [14]: 4.12%
viability, T/C [15]: 3.78%
viability, T/C [16]: 2.98%
viability, T/C (second compound 1 µM, first compound 3.16 µM): 2.66%
viability, T/C (second compound 1 µM, first compound 10 µM): 2.88%
viability, T/C [17]: 3.35%
viability, T/C [18]: 3.08%
viability, T/C [19]: 2.69%
viability, T/C [20]: 2.63%
viability, T/C (second compound 3.16 µM, first compound 3.16 µM): 2.26%
viability, T/C (second compound 3.16 µM, first compound 10 µM): 2.14%
viability, T/C [21]: 2.98%
viability, T/C [22]: 3.37%
viability, T/C [23]: 3.23%
viability, T/C [24]: 2.97%
viability, T/C (second compound 10 µM, first compound 3.16 µM): 3.87%
viability, T/C (second compound 10 µM, first compound 10 µM): 2.96%

CCN1CCN(Cc2ccc(Nc3ncc(F)c(-c4cc(F)c5nc(C)n(C(C)C)c5c4)n3)nc2)CC1 + CN1CCN(c2cc(C(=O)Nc3cc4cc(-c5cnn(C)c5)ccc4cn3)ccn2)CC1
IC50 (second compound 0.0316 µM): > 1000 nM
IC50 (second compound 0.1 µM): > 1000 nM
IC50 (second compound 0.316 µM): < 3.16 nM
IC50 (second compound 1 µM): < 3.16 nM
IC50 (second compound 3.16 µM): < 3.16 nM
IC50 (second compound 10 µM): < 3.16 nM
viability, T/C [25]: 93.6%
viability, T/C [26]: 96.1%
viability, T/C [1]: 78.2%
viability, T/C [2]: 73.1%
viability, T/C [3]: 65.2%
viability, T/C [4]: 76.1%
viability, T/C [27]: 68.6%
viability, T/C [28]: 67.8%
viability, T/C [5]: 62.6%
viability, T/C [6]: 60.2%
viability, T/C [7]: 59.7%
viability, T/C [8]: 58.9%
viability, T/C [29]: 23.3%
viability, T/C [30]: 24.5%
viability, T/C [9]: 25.5%
viability, T/C [10]: 27.9%
viability, T/C [11]: 29.6%
viability, T/C [12]: 39.9%
viability, T/C [31]: 3.56%
viability, T/C [32]: 3.73%
viability, T/C [13]: 3.71%
viability, T/C [14]: 3.79%
viability, T/C [15]: 7.89%
viability, T/C [16]: 9.9%
viability, T/C [33]: 3.02%
viability, T/C [34]: 5.31%
viability, T/C [17]: 3.88%
viability, T/C [18]: 3.9%
viability, T/C [19]: 4.69%
viability, T/C [20]: 6.79%
viability, T/C [35]: 3.83%
viability, T/C [36]: 4.01%
viability, T/C [21]: 4.24%
viability, T/C [22]: 3.37%
viability, T/C [23]: 4.88%
viability, T/C [24]: 5.11%

COc1c(OCCCN2CCOCC2)ccc2c3n(c(=NC(=O)c4cnc(N)nc4)nc12)CCN3 + CN1CCN(c2cc(C(=O)Nc3cc4cc(-c5cnn(C)c5)ccc4cn3)ccn2)CC1
IC50 (second compound 0.0316 µM): 40.1 nM
IC50 (second compound 0.1 µM): 18.7 nM
IC50 (second compound 0.316 µM): < 3.16 nM
IC50 (second compound 1 µM): < 3.16 nM
IC50 (second compound 3.16 µM): < 3.16 nM
IC50 (second compound 10 µM): < 3.16 nM
viability, T/C [25]: 85.5%
viability, T/C [26]: 77.1%
viability, T/C [1]: 50%
viability, T/C [2]: 39.6%
viability, T/C [3]: 28.8%
viability, T/C [4]: 25.9%
viability, T/C [27]: 64.5%
viability, T/C [28]: 63%
viability, T/C [5]: 39.3%
viability, T/C [6]: 26%
viability, T/C [7]: 21.4%
viability, T/C [8]: 19.3%
viability, T/C [29]: 23.6%
viability, T/C [30]: 21.5%
viability, T/C [9]: 15.9%
viability, T/C [10]: 15.7%
viability, T/C [11]: 12.2%
viability, T/C [12]: 11.9%
viability, T/C [31]: 3.49%
viability, T/C [32]: 2.87%
viability, T/C [13]: 2.38%
viability, T/C [14]: 2.22%
viability, T/C [15]: 1.51%
viability, T/C [16]: 0.92%
viability, T/C [33]: 3.25%
viability, T/C [34]: 4.48%
viability, T/C [17]: 3.03%
viability, T/C [18]: 1.39%
viability, T/C [19]: 1.26%
viability, T/C [20]: 0.84%
viability, T/C [35]: 4.13%
viability, T/C [36]: 3.87%
viability, T/C [21]: 3.7%
viability, T/C [22]: 2.13%
viability, T/C [23]: 1.69%
viability, T/C [24]: 2.03%
